In paper PMC10138389, “Study of Lipophilicity and ADME Properties of 1,9-Diazaphenothiazines with Anticancer Action” (International Journal of Molecular Sciences, 2023):

Assays:
[1] = cited from earlier work; for logPTLC, 1,6-Diaza: 1,6-diazaphenothiazines; for logPTLC, 1,8-Diaza: 1,8-diazaphenothiazines; for logPTLC, 2,7-Diaza: 2,7-diazaphenothiazines; for logPTLC, 3,6-Diaza: 3,6-diazaphenothiazines
[2] = experimental lipophilicity by RP-TLC (RM0, logPTLC); format: physicochemical; conditions: for logPTLC, 1,9-Diaza: 1,9-diazaphenothiazines, comparison table; for −b (slope of RM = RM0 + bC) / RM0 (relative lipophilicity parameter): RP-TLC; for −b (slope of RM = RM0 + bC): RP 18F254S, acetone/TRIS buffer pH 7.4; for RM0 (relative lipophilicity parameter): extrapolation to zero acetone concentration, TRIS buffer pH 7.4; for chromatographic logP: pH 7.4, RM0 converted with the calibration curve of standards I–V
Method: In the next stage, experimental measurements of the lipophilicity coefficient were performed with the use of reversed-phase thin-layer chromatography RP-TLC.
The experimental RP-TLC method provided the RM retention parameter (calculated from RF value measurements) using the following equation:RM = log (1/RF − 1)(1)
Then a calibration curve was created using the same measuring conditions. […] The calibration curve was used to convert the values of the relative lipophilicity parameter RM0 of the tested hybrids into the value of the absolute lipophilicity parameter logPTLC.
The equation of the standard curve with which it was possible to convert the relative lipophilicity parameter RM0 into the absolute parameter logPTLC is presented in Figure 2.
The RP-TLC method was used to determine the experimental lipophilicity according to the literature. Modified silica gel RP 18F254S (Merck) was used as the stationary phase and a mixture of tris(hydroxymethyl)aminomethane (TRIS) (0.2 M, buffer pH = 7.4) with acetone as the mobile phase with the range of concentrations from 40 to 70% (v/v) in 5% increments. […] Spots were observed under UV light at λ = 254 nm. Each measurement was performed in triplicate and then the RF values were calculated.

[3] = tested on: melanoma C-32; design: method as in PMID 31307242, PMID 33807874; conditions: melanoma C-32 cell line; cited from earlier work
[4] = tested on: glioblastoma SNB-19; design: method as in PMID 31307242, PMID 33807874; conditions: cited from earlier work
[5] = tested on: breast cancer MDA-MB-231; design: method as in PMID 31307242, PMID 33807874; conditions: cited from earlier work
[6] = tested on: H3, TP53, CDKN1A, BCL-2, and BAX genes; design: method as in PMID 33807874; conditions: RT-QPCR, tested cell lines; cited from earlier work
[7] = tested on: SNB-19 cells; design: method as in PMID 33807874; conditions: Annexin V; cited from earlier work
[8] = standards; cited from earlier work

Structure (SMILES)	−b (slope of RM = RM0 + bC) [2]	RM0 (relative lipophilicity parameter) [2]	chromatographic logP [2]	also measured
c1cnc2c(c1)Nc1ncccc1S2 [1,6-Diaza A, 10H-1,6-diazaphenothiazine]				logPTLC, 1,6-Diaza [1]: 2.316
C=CCN1c2cccnc2Sc2cccnc21 [1,6-Diaza B]				logPTLC, 1,6-Diaza [1]: 3.008
C#CCN1c2cccnc2Sc2cccnc21 [1,6-Diaza C]				logPTLC, 1,6-Diaza [1]: 1.574
CN(C)CCCN1c2cccnc2Sc2cccnc21 [1,6-Diaza D]				logPTLC, 1,6-Diaza [1]: 1.156
c1cnc2c(c1)Sc1ccncc1N2 [1,8-Diaza A]				logPTLC, 1,8-Diaza [1]: 1.759
C=CCN1c2cnccc2Sc2cccnc21 [1,8-Diaza B]				logPTLC, 1,8-Diaza [1]: 2.313
C#CCN1c2cnccc2Sc2cccnc21 [1,8-Diaza C]				logPTLC, 1,8-Diaza [1]: 2.186
CN(C)CCCN1c2cnccc2Sc2cccnc21 [1,8-Diaza D]				logPTLC, 1,8-Diaza [1]: 1.832
c1cc2c(cn1)Nc1ccncc1S2 [2,7-Diaza A]				logPTLC, 2,7-Diaza [1]: 1.540
C=CCN1c2ccncc2Sc2ccncc21 [2,7-Diaza B]				logPTLC, 2,7-Diaza [1]: 1.940
C#CCN1c2ccncc2Sc2ccncc21 [2,7-Diaza C]				logPTLC, 2,7-Diaza [1]: 1.654
CN(C)CCCN1c2ccncc2Sc2ccncc21 [2,7-Diaza D]				logPTLC, 2,7-Diaza [1]: 1.940
c1cnc2c(c1)Nc1ccncc1S2 [3,6-Diaza A, 10H-3,6-diazaphenothiazine]				logPTLC, 3,6-Diaza [1]: 0.952
C=CCN1c2ccncc2Sc2ncccc21 [3,6-Diaza B]				logPTLC, 3,6-Diaza [1]: 1.329
C#CCN1c2ccncc2Sc2ncccc21 [3,6-Diaza C]				logPTLC, 3,6-Diaza [1]: 1.342
CN(C)CCCN1c2ccncc2Sc2ncccc21 [3,6-Diaza D]				logPTLC, 3,6-Diaza [1]: 1.404
c1cnc2c(c1)Sc1cccnc1N2 [Compound 1, 10H-1,9-diazaphenothiazine]	0.0205	1.1970	1.48	logPTLC, 1,9-Diaza [2]: 1.476; IC50 [3]: 3.83 µM; anticancer activity against other lines [4]: inactive; anticancer activity against other lines [5]: inactive

Structure (SMILES)	−b (slope of RM = RM0 + bC) [2]	RM0 (relative lipophilicity parameter) [2]	chromatographic logP [2]	also measured
CN1c2ncccc2Sc2cccnc21 [Compound 2]	0.0192	1.3850	1.66	
C=CCN1c2ncccc2Sc2cccnc21 [Compound 3]	0.0278	1.4052	1.68	logPTLC, 1,9-Diaza [2]: 1.682
C#CCN1c2ncccc2Sc2cccnc21 [Compound 4]	0.0195	1.4720	1.75	logPTLC, 1,9-Diaza [2]: 1.747; expression of the CDKN1A gene [6]: enhanced; expression of the H3 gene [6]: reduced; expression of the TP53 gene [6]: reduced; early and late cell apoptosis populations [7]: slight increase
c1ccc(CN2c3ncccc3Sc3cccnc32)cc1 [Compound 5, 10-benzyl-1,9-diazaphenothiazine]	0.0205	1.7877	2.06	
CN(C)CCCN1c2ncccc2Sc2cccnc21 [Compound 6]	0.0170	1.8096	2.08	logPTLC, 1,9-Diaza [2]: 2.080
CCN(CC)CCN1c2ncccc2Sc2cccnc21 [Compound 7]	0.0180	1.7934	2.06	expression of the CDKN1A gene [6]: enhanced; expression of the H3 gene [6]: reduced; expression of the TP53 gene [6]: reduced; early and late cell apoptosis populations [7]: slight increase
CC(CN(C)C)CN1c2ncccc2Sc2cccnc21 (stereo not shown) [Compound 8]	0.0228	1.8961	2.17	
c1cnc2c(c1)Sc1cccnc1N2CCN1CCCC1 [Compound 9]	0.0123	1.9434	2.21	
c1cnc2c(c1)Sc1cccnc1N2CCN1CCCCC1 [Compound 10]	0.0214	1.9781	2.25	
CN1CCCCC1CCN1c2ncccc2Sc2cccnc21 (stereo not shown) [Compound 11]	0.0211	1.9988	2.27	
CC(=O)Nc1ccccc1 [I, acetanilide, reference compound]	0.018	1.011		log P TLC (logPlit.) [8]: 1.21 [22]
CC(=O)c1ccccc1 [II, acetophenone, reference compound]	0.019			
CC(=O)c1ccc(Br)cc1 [III, 4-bromoacetophenone, reference compound]	0.033	2.281		log P TLC (logPlit.) [8]: 2.43 [23]
O=C(c1ccccc1)c1ccccc1 [IV, benzophenone, reference compound]	0.034			
c1ccc2cc3ccccc3cc2c1 [V, anthracene, reference compound]	0.044	3.588		log P TLC (logPlit.) [8]: 5.53 [22]
N.N.[Cl][Pt][Cl] [cisplatin, reference compound]				IC50 [3]: 13.2 µM
